Consider one compound from patent US9822128B1, “Substituted spirooxindoles” (KING SAUD UNIVERSITY, priority 2017, dated 2017).

The subject of experiment [1] is HCT-116 cells. Kind of experiment: Colony forming assay. The settings on record: HCT-116, 2 μM (method) / 1 μM (result sentence), 10 days, vs DMSO control. The class given is cell-based, human. The protocol:
HCT-116 cells were seeded in 35 mm cell culture dish (500 cells/ml, 2 ml/dish). After overnight incubation at 37° C. and 5% CO2, the medium was replaced with fresh medium containing either DMSO or 2 μM of 4d. The dishes were returned into the incubator and watched for the formation of single colonies. After 10 days, the experiment was stopped by washing the colonies by ice-cold 1×-PBS and fixed with ice-cold methanol. The colonies were left to air dry, then stained with 0.5% crystal violet. The excess stain was washed off by tap water. The colonies were counted by Gx microscopes (GXMGXD202 Inverted Microscope) (10× Eyepiece) and images were processed by ImageJ 1.47v. The effect of compound 4d on the colony formation of colon cancer cells was evaluated by incubating the cells with 1 μM. […] This confirms the ability of compound 4d to enhance tumor suppressor activities.

Experiment [2] has as its system HCT-116 cells. Kind of experiment: Induction of apoptosis (annexin-V / 7-AAD flow cytometry). The class given is cell-based, human. The protocol:
The HCT-116 cells were seeded at 5*10^4 cells/mL density in a 6-well plate. The cells were treated with 2 μM 4d for 48 hrs, and the cells were collected after trypsin enzyme treatment and washed two times with ice-cold 1×PBS. The cells were incubated for 2 hours at 4° C. in PBS, then centrifuged and re-suspended in 1× binding buffer. Then 5 μL PE annexin-V and 5 μL 7-amino-actinomycin D (7-AAD) were added to 100 μL of cell suspension and incubated for 15 min at RT in the dark, and then 400 μL of 1× binding buffer was added to the cell suspension and analyzed within 1 hour by BD Accuri™ C6 Plus flow cytometer. The following controls were used to set up the machine: cells unstained with PE annexin V and 7-AAD, cells stained with PE annexin V only, cells stained with 7-AAD only. The level of apoptotic cells, whether in early (+ve annexin-V and −ve PI) or late stage (+ve Annexin-V and +ve PI), was determined. […] The results are shown in FIG. 5A (untreated cells) and FIG. 5B (treated with just 1 μM of compound 4d for 24 hours).
On the technique in general: Flow cytometry measures light scatter and fluorescence of single cells or particles in a stream.

For `O=C(/C=C/c1ccc(Cl)cc1Cl)[C@H]1[C@H](c2ccc(Cl)cc2Cl)[C@H]2CSCN2[C@]12C(=O)Nc1ccccc12` [Compound 4d, (3R,6′S,7′R,7a′S)-7′-(2,4-dichlorophenyl)-6′-((E)-3-(2,4-dichlorophenyl)acryloyl)-1′,6′,7′,7a′-tetrahydro-3′H-spiro[indoline-3,5′-pyrrolo[1,2-c]thiazol]-2-one], in the experiment with HCT-116 cells [1], the formation of colonies result is reported as “able to inhibit the formation of colonies”. Also, the induction of apoptosis result in the experiment with HCT-116 cells [2] (HCT-116, 1 μM, 24 hours) was “could induce the apoptosis”. Further, the apoptotic cells result with HCT-116 cells [2] (HCT-116, 2 μM, 48 hours) is listed as “greatly increased the apoptotic cells”.
